# Measured values: US10005768B2, “Carboxamide derivatives and use thereof” (Purdue Pharma L.P., priority 2013, dated 2018)
# Biological target: human Nav1.7 (Homo sapiens (Human), UniProt Q15858)
# Experiment: FLIPR sodium dye assay (CoroNa Green AM Na+ dye, primary fluorescence assay)
# Format: cell-based
# Settings: recombinant Nav1.7/HEK293 cells
# Method: In vitro assays were performed in a recombinant cell line expressing cDNA encoding the alpha subunit (Nav1.7, SCN9a, PN1, NE) of human Nav1.7 (Accession No. NM_002977). The cell line was provided by investigators at Yale University (Cummins et al, J. Neurosci. 18(23): 9607-9619 (1998)). For dominant selection of the Nav1.7-expressing clones, the expression plasmid co-expressed the neomycin resistance gene. The cell line was constructed in the human embryonic kidney cell line, HEK293, under the influence of the CMV […] promoter, and stable clones were selected using limiting dilution cloning and antibiotic selection using the neomycin analogue, G418. Recombinant beta and gamma subunits were not introduced into this cell line. Additional cell lines expressing recombinant Nav1.7 cloned from other species can also be used, alone or in combination with various beta subunits, gamma subunits or chaperones.
# Unless otherwise noted, cell culture reagents were purchased from Mediatech of Herndon, Va. The recombinant Nav1.7/HEK293 cells were routinely cultured in growth medium consisting of Dulbecco's […] essential medium containing 10% fetal bovine serum (FBS, Hyclone, Thermo Fisher Scientific, Logan, Utah), 100 U/mL penicillin, 100 μg/mL streptomycin, 2-4 mM L-glutamine, and […] G418. For natural, non-recombinant cell lines, the selective antibiotic was omitted, and additional media formulations can be applied as needed.
# The final buffer consisted of 20 mM Hepes, pH 7.3, 1.261 mM CaCl2, 0.493 mM MgCl2, 0.407 mM Mg(SO)4, 5.33 mM KCl, 0.441 mM KH2PO4, 137 mM NaCl, 0.336 mM Na2HPO4 and […] D-glucose (Hanks et al., Proc. Soc. Exp. Biol. Med. 71:196 (1949)), and the simple formulation was typically the basic buffer throughout the assay (i.e., all wash and addition steps).
# The fluorescence indicator used in the primary fluorescence assay was the cell permeant version of CoroNa™ Green (Invitrogen, Molecular Probes, Eugene, Oreg.), a dye that emits light in the fluorescence range (Harootunian et al., J. Biol. Chem. 264(32):19458-19467 (1989)). The intensity of this emission, but not the wavelength range, is increased when the dye is exposed to Na^+ ions, which it can bind with partial selectivity. Cells expressing Nav1.7 or other sodium channels were loaded with the CoroNa™ Green dye immediately in advance of the fluorescence assay, and then, after agonist stimulation, the mobilization of Na^+ ions was detected as the Na^+ ions flowed from the extracellular fluid into the cytoplasm through the activated sodium channel pores. The dye was stored in the dark as a lyophilized powder, and then an aliquot was dissolved immediately before the cell loading procedure, according to the instructions of the manufacturer, to a stock concentration of 10 mM in DMSO. It was then diluted in the assay buffer to a 4× concentrated working solution, so that the final concentration of dye in the cell loading buffer was 5 μM.
# In the fluorescence assays, two agonists were used in combination, namely 1) veratridine; and 2) the venom from the yellow scorpion, Leiurus quinquestriatus hebraeus. Veratridine is an alkaloid small molecule that facilitates the capture of channel openings by inhibiting inactivation, and the scorpion venom is a natural preparation that includes peptide toxins selective for different subsets of voltage-gated sodium channels. These scorpion toxins inhibit the fast inactivation of their cognate target channels. Stock solutions of the agonists were prepared to 40 mM in DMSO (veratridine) and 1 mg/mL in dH2O (scorpion venom), and then diluted to make a 4× or 2× stock (depending on the particular assay) in assay buffer, the final concentration being 100 μM (veratridine) and 10 μg/mL (scorpion venom). Both of the agonists were purchased from Sigma Aldrich, St. Louis, Mo.
# Test compounds were dissolved in DMSO to yield 10 mM stock solutions. […]
# Chain of human Nav1.7 (Q15858 other isoform, or with tags, fused parts or gaps): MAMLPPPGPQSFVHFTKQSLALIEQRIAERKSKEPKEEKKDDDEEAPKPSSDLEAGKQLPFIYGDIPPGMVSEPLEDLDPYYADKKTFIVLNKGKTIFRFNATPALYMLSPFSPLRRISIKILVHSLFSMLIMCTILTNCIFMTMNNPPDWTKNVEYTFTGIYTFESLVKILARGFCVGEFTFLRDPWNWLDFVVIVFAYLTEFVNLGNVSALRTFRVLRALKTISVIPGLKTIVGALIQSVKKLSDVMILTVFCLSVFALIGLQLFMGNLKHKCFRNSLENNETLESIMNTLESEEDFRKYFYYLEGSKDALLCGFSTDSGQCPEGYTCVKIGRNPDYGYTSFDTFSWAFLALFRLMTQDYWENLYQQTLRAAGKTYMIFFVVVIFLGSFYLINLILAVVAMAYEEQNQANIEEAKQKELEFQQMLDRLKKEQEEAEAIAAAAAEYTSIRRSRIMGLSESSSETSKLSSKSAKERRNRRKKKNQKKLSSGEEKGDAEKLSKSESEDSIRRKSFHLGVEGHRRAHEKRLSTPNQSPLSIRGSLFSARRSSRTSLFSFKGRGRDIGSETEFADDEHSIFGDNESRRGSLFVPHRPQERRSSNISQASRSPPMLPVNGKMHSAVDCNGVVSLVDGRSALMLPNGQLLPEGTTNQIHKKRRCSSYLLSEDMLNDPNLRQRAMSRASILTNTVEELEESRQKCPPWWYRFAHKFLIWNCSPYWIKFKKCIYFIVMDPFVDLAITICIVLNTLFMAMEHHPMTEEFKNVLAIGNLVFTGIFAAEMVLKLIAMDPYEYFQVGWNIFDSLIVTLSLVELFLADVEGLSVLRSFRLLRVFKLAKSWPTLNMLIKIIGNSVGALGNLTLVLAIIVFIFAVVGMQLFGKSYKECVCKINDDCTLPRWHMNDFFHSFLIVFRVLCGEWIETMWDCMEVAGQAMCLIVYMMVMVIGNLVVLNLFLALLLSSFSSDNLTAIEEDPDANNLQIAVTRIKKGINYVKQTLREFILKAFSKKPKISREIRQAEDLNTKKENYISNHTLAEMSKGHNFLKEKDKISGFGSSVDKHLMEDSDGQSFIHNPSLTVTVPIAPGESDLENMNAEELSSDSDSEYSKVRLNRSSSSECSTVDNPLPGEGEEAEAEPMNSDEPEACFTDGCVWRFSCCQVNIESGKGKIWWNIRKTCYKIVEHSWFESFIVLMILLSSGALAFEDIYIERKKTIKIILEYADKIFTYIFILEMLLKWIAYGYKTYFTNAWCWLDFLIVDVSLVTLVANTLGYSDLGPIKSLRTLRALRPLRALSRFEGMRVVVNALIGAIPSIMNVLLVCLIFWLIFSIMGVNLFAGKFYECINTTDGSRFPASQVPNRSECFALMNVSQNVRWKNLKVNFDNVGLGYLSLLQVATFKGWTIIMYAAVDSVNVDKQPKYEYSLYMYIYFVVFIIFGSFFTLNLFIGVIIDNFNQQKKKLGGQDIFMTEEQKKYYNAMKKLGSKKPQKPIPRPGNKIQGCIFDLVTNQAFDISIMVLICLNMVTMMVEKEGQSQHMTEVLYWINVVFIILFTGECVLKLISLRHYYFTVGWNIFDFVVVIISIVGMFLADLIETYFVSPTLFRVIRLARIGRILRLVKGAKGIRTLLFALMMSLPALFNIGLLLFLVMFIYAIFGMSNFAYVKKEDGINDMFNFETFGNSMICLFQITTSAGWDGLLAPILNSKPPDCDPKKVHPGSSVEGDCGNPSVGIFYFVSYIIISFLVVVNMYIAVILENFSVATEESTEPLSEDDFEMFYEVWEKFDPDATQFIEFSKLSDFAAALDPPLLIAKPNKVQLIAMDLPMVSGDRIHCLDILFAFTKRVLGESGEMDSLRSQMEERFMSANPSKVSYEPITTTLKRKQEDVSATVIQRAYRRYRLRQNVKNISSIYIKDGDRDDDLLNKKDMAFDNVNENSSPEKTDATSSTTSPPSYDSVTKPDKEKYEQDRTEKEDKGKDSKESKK
row,Structure (SMILES),IC50
1,"CC(c1cc(C(F)(F)F)ccc1Oc1ccc(-c2cccc(C(N)=O)n2)cc1)N1CCCC1 (stereo not shown) [compound 58, 6-(4-(2-(1-(pyrrolidin-1-yl)ethyl)-4-(trifluoromethyl)phenoxy)-phenyl)picolinamide]",0.231 ± 0.008 µM
2,"NC(=O)c1cccc(-c2ccc(Oc3ccc(C(F)(F)F)c(CN4CCCC4)c3)cc2)n1 [compound 56, 6-(4-(3-(pyrrolidin-1-ylmethyl)-4-(trifluoromethyl)phenoxy)phenyl) picolinamide]",0.173 ± 0.033 µM
3,"NC(=O)c1cccc(-c2ccc(Oc3ccc(C(F)(F)F)cc3CN3CCNC(=O)C3)cc2)n1 [compound 35, 6-(4-(2-((3-oxopiperazin-1-yl)methyl)-4-(trifluoromethyl)-phenoxy)phenyl)picolinamide]",0.141 ± 0.022 µM
4,"NC(=O)c1cccc(-c2ccc(Oc3ccc(C(F)(F)F)cc3CNCCN3CCNC3=O)cc2)n1 [compound 34, 6-(4-(2-(((2-(2-oxoimidazolidin-1-yl)ethyl)amino)methyl)-4-(trifluoromethyl)phenoxy)phenyl) picolinamide]",1.77 ± 0.57 µM
5,"NC(=O)c1cccc(-c2ccc(Oc3ccc(C(F)(F)F)cc3CN3CCCC(O)C3)cc2)n1 (stereo not shown) [compound 51, 6-(4-(2-((3-hydroxypiperidin-1-yl)methyl)-4-(trifluoromethyl)-phenoxy)phenyl)picolinamide]",0.566 ± 0.062 µM
6,"NC(=O)c1cccc(-c2ccc(Oc3ccc(C(F)(F)F)c(CNCCC(F)(F)F)c3)cc2)n1 [compound 55, 6-(4-(4-(trifluoromethyl)-3-(((3,3,3-trifluoropropyl)amino)-methyl)phenoxy)phenyl)picolin-amide]",0.174 ± 0.018 µM
7,"NC(=O)c1cccc(-c2ccc(Oc3ccc(C(F)(F)F)cc3CNCCO)cc2)n1 [compound 40, 6-(4-(2-(((2-hydroxyethyl)-amino)methyl)-4-(trifluoro-methyl)phenoxy)phenyl)picolin-amide]",1.68 ± 0.177 µM
8,"Cn1cccc1-c1cc(C#N)ccc1Oc1ccc(-c2cccc(C(N)=O)n2)cc1 [compound 17, 6-(4-(4-cyano-2-(1-methyl-1H-pyrrol-2-yl)phenoxy)phenyl)-picolinamide]",0.067 ± 0.019 µM
9,"NC(=O)c1cccc(-c2ccc(Oc3ccc(C(F)(F)F)cc3-c3cccnc3)cc2)n1 [compound 29, 6-(4-(2-(pyridin-3-yl)-4-(trifluoromethyl)phenoxy)phenyl) picolinamide]",0.117 ± 0.036 µM
10,"CN1CCN(Cc2cc(C(F)(F)F)ccc2Oc2ccc(-c3cccc(C(N)=O)n3)cc2)CC1 [compound 33, 6-(4-(2-((4-methylpiperazin-1-yl)methyl)-4-(trifluoromethyl)-phenoxy)phenyl)picolinamide]",0.221 ± 0.049 µM
11,"NC(=O)c1cccc(-c2ccc(Oc3ccc(C(F)(F)F)c(CN4CC(N)C4)c3)cc2)n1 [compound 62, 6-(4-(3-((3-aminoazetidin-1-yl)methyl)-4-(trifluoromethyl)phenoxy)phenyl) picolinamide]",0.31 ± 0.066 µM
12,"N#Cc1ccc(Oc2ccc(-c3cccc(C(N)=O)n3)cc2)c(-c2ccncc2)c1 [compound 15, 6-(4-(4-cyano-2-(pyridin-4-yl)phenoxy)phenyl)picolinamide]",0.147 ± 0.016 µM
13,"NC(=O)c1cccc(-c2ccc(Oc3ccc(C(F)(F)F)cc3-c3ccncc3)cc2)n1 [compound 28, 6-(4-(2-(pyridin-4-yl)-4-(trifluoromethyl)phenoxy)phenyl) picolinamide]",0.101 ± 0.021 µM
14,"NC(=O)c1cccc(-c2ccc(Oc3ccc(C(F)(F)F)cc3C(O)C[N+](=O)[O-])cc2)n1 (stereo not shown) [compound 63, 6-(4-(2-(1-hydroxy-2-nitroethyl)-4-(trifluoromethyl)phenoxy)-phenyl)picolinamide]",0.337 ± 0.056 µM
15,"CN(C)CCN(C)Cc1cc(C(F)(F)F)ccc1Oc1ccc(-c2cccc(C(N)=O)n2)cc1 [compound 37, 6-(4-(2-(((2-(dimethylamino)-ethyl)(methyl)amino)methyl)-4-(trifluoromethyl)phenoxy)-phenyl)picolinamide]",1.07 ± 0.117 µM

# Now from value to molecule:
row,IC50,Structure (SMILES)
1,0.128 ± 0.03 µM,"NC(=O)c1cccc(-c2ccc(Oc3ccc(F)cc3)c(Cl)c2)n1 [compound 87, 6-(3-chloro-4-(4-fluorophenoxy)-phenyl)picolinamide]"
2,0.71 ± 0.0008 µM,"NC(=O)c1cccc(-c2ccc(Oc3ccc(C(F)(F)F)cc3C(C(N)=O)N3CCCC3)cc2)n1 (stereo not shown) [compound 81, 6-(4-(2-(2-amino-2-oxo-1-(pyrrolidin-1-yl)ethyl)-4-(trifluoromethyl)phenoxy)phenyl) picolinamide]"
3,2.85 ± 0.698 µM,"NC(=O)c1cccc(-c2ccc(Oc3ccc(C(F)(F)F)cc3C(=O)N3CCCC3)cc2)n1 [compound 160, 6-(4-(2-(pyrrolidine-1-carbonyl)-4-(trifluoromethyl)phenoxy)phenyl)picolinamide]"
4,2.45 ± 0.344 µM,"NC(=O)c1cccc(-c2ccc(Oc3ccc(C(F)(F)F)cc3[C@@H](O)CO)cc2)n1 [compound 77, (R)-6-(4-(2-(1,2-dihydroxyethyl)-4-(trifluoromethyl)-phenoxy)phenyl)picolinamide]"
5,1.3 ± 0.056 µM,"CCN(CC)S(=O)(=O)c1cc(C(F)(F)F)ccc1Oc1ccc(-c2cccc(C(N)=O)n2)cc1 [compound 109, 6-(4-(2-(N,N-diethylsulfamoyl)-4-(trifluoromethyl)phenoxy)phenyl)picolinamide]"
6,0.362 ± 0.095 µM,"N#Cc1ccc(OCc2cc(-c3cccc(C(N)=O)n3)ccc2Oc2ccc(F)cc2)cc1 [compound 105, 6-(3-((4-cyanophenoxy)methyl)-4-(4-fluorophenoxy)phenyl)picolinamide]"
7,1.33 ± 0.209 µM,"CCN(CC)Cc1cc(-c2cccc(C(N)=O)n2)ccc1Oc1ccc(F)cc1 [compound 95, 6-(3-((diethylamino)methyl)-4-(4-fluorophenoxy)phenyl) picolinamide]"
8,3.34 ± 0.452 µM,"N#CC(N)c1cc(C(F)(F)F)ccc1Oc1ccc(-c2cccc(C(N)=O)n2)cc1 (stereo not shown) [compound 145, 6-(4-(2-(amino(cyano)methyl)-4-(trifluoromethyl)phenoxy)phenyl) picolinamide]"
9,2.14 ± 0.199 µM,"NCC(O)c1cc(C(F)(F)F)ccc1Oc1ccc(-c2cccc(C(N)=O)n2)cc1 (stereo not shown) [compound 64, 6-(4-(2-(2-amino-1-hydroxy-ethyl)-4-(trifluoromethyl)-phenoxy)phenyl)picolinamide]"
10,6.59 ± 0.321 µM,"NC(=O)c1cccc(-c2ccc(Oc3ccc(C(F)(F)F)cc3C(C(=O)N3CCCC3)N3CCCC3)cc2)n1 (stereo not shown) [compound 111, 6-(4-(2-(2-oxo-1,2-di(pyrrolidin-1-yl)ethyl)-4-(trifluoromethyl)phenoxy)phenyl) picolinamide]"
11,0.49 ± 0.041 µM,"NC(=O)c1cccc(-c2ccc(Oc3ccc(F)cc3)cc2Cl)n1 [compound 86, 6-(2-chloro-4-(4-fluorophenoxy)-phenyl)picolinamide]"
12,0.28 ± 0.009 µM,"NC(=O)c1cccc(-c2ccc(Oc3ccc(C(F)(F)F)cc3CNC3CCCC3)cc2)n1 [compound 108, 6-(4-(2-((cyclopentylamino)-methyl)-4-(trifluoromethyl)-phenoxy)phenyl)picolinamide]"
13,> 20 µM,"NC(=O)c1cccc(-c2ccc(Oc3ccc(F)cc3)c(COc3ccc(Cl)cc3I)c2)n1 [compound 94, 6-(3-((4-chloro-2-iodophenoxy)methyl)-4-(4-fluorophenoxy)phenyl) picolinamide]"
14,0.862 ± 0.012 µM,"NCc1cc(C(F)(F)F)ccc1Oc1ccc(-c2cccc(C(N)=O)n2)cc1 [compound 65, 6-(4-(2-(aminomethyl)-4-(trifluoromethyl)phenoxy)phenyl) picolinamide]"
15,6.05 ± 1.33 µM,"CCCNC(C(N)=O)c1cc(C(F)(F)F)ccc1Oc1ccc(-c2cccc(C(N)=O)n2)cc1 (stereo not shown) [compound 83, 6-(4-(2-(2-amino-2-oxo-1-(propylamino)ethyl)-4-(trifluoromethyl)phenoxy)phenyl) picolinamide]"
16,> 20 µM,N#Cc1cc(-c2cccc(C(N)=O)n2)ccc1Oc1ccc(F)cc1 [compound 89]
